Source: BindingDB's records for doi:10.1016/j.bmcl.2007.04.105 (Abbott Laboratories, 2007)

Molecular target: Transient receptor potential cation channel subfamily V member 1 (Homo sapiens, UniProt Q8NER1)
Experiment: Ca2+ Influx Functional Assay for the Determination of in Vitro Activity.
Conditions: pH 7.4; 22 °C; read-out: EC50 (the source's name)
Description: The functional antagonist activity of compounds at the TRPV1 receptor was determined with a Ca2+ influx assay by measuring the effect on capsaicin (0.05 uM) evoked increase in intracellular Ca2+ levels using cells stably expressing recombinant human TRPV1. All compounds were tested over an 11-point half-log concentration range. The fluorescent Ca2+ chelating dye fluo-4 was used as an indicator of the relative levels of Ca2+ in a 96-well format using a fluorescence imaging plate reader. Fluorescence readings were made at 1-5 s intervals over the 240 s course of the experimental run. The peak increase in relative fluorescence units was calculated and expressed as a percentage of the 0.05 uM capsaicin (control) response. Curve fits of the data were solved using a four-parameter logistic Hill equation in GraphPad Prism, and IC50 values were calculated.

Sequence of Transient receptor potential cation channel subfamily V member 1 (Q8NER1 whole entry): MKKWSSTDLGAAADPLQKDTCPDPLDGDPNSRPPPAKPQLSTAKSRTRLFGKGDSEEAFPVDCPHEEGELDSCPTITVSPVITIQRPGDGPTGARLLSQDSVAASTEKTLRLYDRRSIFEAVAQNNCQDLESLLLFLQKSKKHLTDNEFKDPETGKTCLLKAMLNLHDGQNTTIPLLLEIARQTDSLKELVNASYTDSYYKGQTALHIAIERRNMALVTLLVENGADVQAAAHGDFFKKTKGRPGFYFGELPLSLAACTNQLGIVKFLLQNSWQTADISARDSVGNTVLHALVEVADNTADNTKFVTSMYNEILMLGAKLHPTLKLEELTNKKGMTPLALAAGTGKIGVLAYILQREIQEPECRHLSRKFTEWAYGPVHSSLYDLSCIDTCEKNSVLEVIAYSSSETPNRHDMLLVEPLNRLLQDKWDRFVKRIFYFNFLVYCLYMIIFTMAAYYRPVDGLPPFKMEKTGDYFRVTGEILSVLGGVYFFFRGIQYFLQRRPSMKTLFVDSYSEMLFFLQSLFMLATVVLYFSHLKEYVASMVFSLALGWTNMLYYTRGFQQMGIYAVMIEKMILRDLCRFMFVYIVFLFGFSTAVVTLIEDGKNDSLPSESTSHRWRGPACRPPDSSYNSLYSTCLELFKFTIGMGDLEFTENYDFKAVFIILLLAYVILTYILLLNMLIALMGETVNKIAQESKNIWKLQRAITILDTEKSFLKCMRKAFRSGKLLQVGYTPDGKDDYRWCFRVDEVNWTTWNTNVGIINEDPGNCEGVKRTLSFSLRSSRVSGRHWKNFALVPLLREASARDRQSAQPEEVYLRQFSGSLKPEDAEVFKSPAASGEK

Row | IC50 [nM] | SMILES
1 | 22 | CC(NC(=O)Nc1cccc2cnccc12)c1ccc(C(F)(F)F)cc1 (configuration not stated)
2 | 47 | CC(NC(=O)Nc1cccc2[nH]ncc12)c1ccc(C(F)(F)F)cc1 (racemic) [3-1H-indazol-4-yl-1-{1-[4-(trifluoromethyl)phenyl]ethyl}urea]
3 | 600 | O=C(Nc1cccc2cnccc12)NC(c1ccccc1)c1ccccc1 [1-(diphenylmethyl)-3-isoquinolin-5-ylurea]
4 | 125 | CC(C)(C)c1ccc(C(NC(=O)Nc2cccc3cnccc23)c2ccccc2)cc1 (configuration not stated) [1-[(4-tert-butylphenyl)(phenyl)methyl]-3-isoquinolin-5-ylurea]
5 | 2580 | CCC(NC(=O)Nc1cccc2cnccc12)c1ccccc1 (configuration not stated) [1-isoquinolin-5-yl-3-(1-phenylpropyl)urea]
6 | 94 | CC(C)(NC(=O)Nc1cccc2cnccc12)c1ccc(C(F)(F)F)cc1 [1-isoquinolin-5-yl-3-{2-[4-(trifluoromethyl)phenyl]propan-2-yl}urea]
7 | 287 | O=C(Nc1cccc2cnccc12)NC(c1ccc(C(F)(F)F)cc1)C1CCCCC1 (configuration not stated) [1-{cyclohexyl[4-(trifluoromethyl)phenyl]methyl}-3-isoquinolin-5-ylurea]
8 | 73 | Cc1ccc([C@@H](C)NC(=O)Nc2cccc3[nH]ncc23)cc1 [3-1H-indazol-4-yl-1-[(1R)-1-(4-methylphenyl)ethyl]urea]
9 | 123 | C[C@@H](NC(=O)Nc1cccc2[nH]ncc12)c1ccc2ccccc2c1 [3-1H-indazol-4-yl-1-[(1R)-1-(naphthalen-2-yl)ethyl]urea]
10 | 41 | C[C@@H](NC(=O)Nc1cccc2[nH]ncc12)c1ccc(C(F)(F)F)cc1 [3-1H-indazol-4-yl-1-[(1R)-1-[4-(trifluoromethyl)phenyl]ethyl]urea]
11 | 749 | Cc1ccc([C@H](C)NC(=O)Nc2cccc3[nH]ncc23)cc1 [3-1H-indazol-4-yl-1-[(1S)-1-(4-methylphenyl)ethyl]urea]
12 | 3750 | C[C@H](NC(=O)Nc1cccc2[nH]ncc12)c1ccc2ccccc2c1 [3-1H-indazol-4-yl-1-[(1S)-1-(naphthalen-2-yl)ethyl]urea]
13 | 248 | C[C@H](NC(=O)Nc1cccc2[nH]ncc12)c1ccc(C(F)(F)F)cc1 [3-1H-indazol-4-yl-1-[(1S)-1-[4-(trifluoromethyl)phenyl]ethyl]urea]
14 | 15900 | N#CCC(NC(=O)Nc1cccc2cnccc12)c1ccccc1 (configuration not stated) [3-(2-cyano-1-phenylethyl)-1-isoquinolin-5-ylurea]
15 | 17 | CC(NC(=O)Nc1cccc2cnccc12)c1ccc(C(C)(C)C)cc1C(C)(C)C (configuration not stated) [3-[1-(2,4-di-tert-butylphenyl)ethyl]-1-isoquinolin-5-ylurea]
16 | 26 | CC(NC(=O)Nc1cccc2cnccc12)c1ccc(Br)cc1 (configuration not stated) [3-[1-(4-bromophenyl)ethyl]-1-isoquinolin-5-ylurea]
17 | 20 | CCc1cc(C(C)(C)C)ccc1C(C)NC(=O)Nc1cccc2cnccc12 (configuration not stated) [3-[1-(4-tert-butyl-2-ethylphenyl)ethyl]-1-isoquinolin-5-ylurea]
18 | 46 | Cc1cc(C(C)(C)C)ccc1C(C)NC(=O)Nc1cccc2cnccc12 (configuration not stated) [3-[1-(4-tert-butyl-2-methylphenyl)ethyl]-1-isoquinolin-5-ylurea]
19 | 24 | CC(NC(=O)Nc1cccc2cnccc12)c1ccc(C(C)(C)C)cc1 (configuration not stated) [3-[1-(4-tert-butylphenyl)ethyl]-1-isoquinolin-5-ylurea]
20 | 143 | CC(C)(NC(=O)Nc1cccc2cnccc12)c1ccc(Cl)cc1 [3-[2-(4-chlorophenyl)propan-2-yl]-1-isoquinolin-5-ylurea]
21 | 31000 | CN(C)CC(NC(=O)Nc1cccc2cnccc12)c1ccccc1 (configuration not stated) [3-[2-(dimethylamino)-1-phenylethyl]-1-isoquinolin-5-ylurea]
22 | 171 | O=C(Nc1cccc2cnccc12)NC(c1ccccc1)c1ccc(N2CCCCC2)cc1 (configuration not stated) [3-isoquinolin-5-yl-1-{phenyl[4-(piperidin-1-yl)phenyl]methyl}urea]
23 | 147 | O=C(Nc1cccc2cnccc12)NC(c1ccccc1)c1ccc(C(F)(F)F)cc1 (configuration not stated) [3-isoquinolin-5-yl-1-{phenyl[4-(trifluoromethyl)phenyl]methyl}urea]
24 | 19 | CC(NC(=O)Nc1cccc2cnccc12)c1ccc(C(F)(F)F)c(F)c1 (configuration not stated) [3-{1-[3-fluoro-4-(trifluoromethyl)phenyl]ethyl}-1-isoquinolin-5-ylurea]
25 | 109 | CCC(NC(=O)Nc1cccc2cnccc12)c1ccc(C(F)(F)F)c(F)c1 (configuration not stated) [3-{1-[3-fluoro-4-(trifluoromethyl)phenyl]propyl}-1-isoquinolin-5-ylurea]
26 | 476 | O=C(Nc1cccc2cnccc12)NC(c1ccc(C(F)(F)F)cc1)C1CCCC1 (configuration not stated) [3-{cyclopentyl[4-(trifluoromethyl)phenyl]methyl}-1-isoquinolin-5-ylurea]
27 | 149 | O=C(Nc1cccc2cnccc12)NC(c1ccc(C(F)(F)F)cc1)C1CC1 (configuration not stated) [3-{cyclopropyl[4-(trifluoromethyl)phenyl]methyl}-1-isoquinolin-5-ylurea]
